{
  "source": "paper PMC5218480",
  "about": "(PLoS ONE, 2017)",
  "tested_on": "MV-4-11 cells",
  "experiment": "Gene expression microarray analysis (Affymetrix PrimeView) and GSEA",
  "assay_type": "cell-based, human",
  "parameters": "RFU PODN (11730768_x_at) / Fold change /veh PODN (11730768_x_at) / RFU LINC00158 (11744669_a_at) / Fold change /veh LINC00158 (11744669_a_at) / RFU DUSP10 (11751237_a_at) / Fold change /veh DUSP10 (11751237_a_at) / RFU ID3 (11757404_x_at) / Fold change /veh ID3 (11757404_x_at) / RFU PLEKHG5 (11737974_s_at) / Fold change /veh PLEKHG5 (11737974_s_at) / RFU LRRC4B (11730491_at) / Fold change /veh LRRC4B (11730491_at) / RFU GIMAP4 (11747438_a_at) / Fold change /veh GIMAP4 (11747438_a_at) / RFU KRT8 (11758183_x_at) / Fold change /veh KRT8 (11758183_x_at) / RFU CNN1 (11734310_a_at) / Fold change /veh CNN1 (11734310_a_at) / RFU VPS37D (11726825_at) / Fold change /veh VPS37D (11726825_at) / RFU C10orf10 (11716522_x_at) / Fold change /veh C10orf10 (11716522_x_at) / RFU KIR2DL2 /// KIR2DL4 /// KIR2DL5A /// KIR2DL5B /// KIR2DS1 /// KIR2DS2 /// KIR2DS3 /// KIR2DS4 /// KIR3DL3 /// KIR3DL3 /// KIR3DS1 (11738374_at) / Fold change /veh KIR2DL2 /// KIR2DL4 /// KIR2DL5A /// KIR2DL5B /// KIR2DS1 /// KIR2DS2 /// KIR2DS3 /// KIR2DS4 /// KIR3DL3 /// KIR3DL3 /// KIR3DS1 (11738374_at) / RFU C1QL1 (11718748_at) / Fold change /veh C1QL1 (11718748_at) / RFU TMPRSS4 (11747572_a_at) / Fold change /veh TMPRSS4 (11747572_a_at) / RFU HAMP (11756126_x_at) / Fold change /veh HAMP (11756126_x_at) / RFU RNFT2 (11725882_a_at) / Fold change /veh RNFT2 (11725882_a_at) / RFU NR4A2 (11747474_a_at) / Fold change /veh NR4A2 (11747474_a_at) / RFU ABCC12 (11746883_a_at) / Fold change /veh ABCC12 (11746883_a_at) / RFU TMEM136 (11760407_x_at) / Fold change /veh TMEM136 (11760407_x_at) / RFU CLDN22 /// WWC2 (11732394_at) / Fold change /veh CLDN22 /// WWC2 (11732394_at) / RFU HLA-DPB1 (11760878_x_at) / Fold change /veh HLA-DPB1 (11760878_x_at) / RFU SPINT1 (11716480_a_at) / Fold change /veh SPINT1 (11716480_a_at) / RFU GAP43 (11754022_s_at) / Fold change /veh GAP43 (11754022_s_at) / RFU A4GNT (11735810_at) / Fold change /veh A4GNT (11735810_at) / RFU PRB3 (11715151_x_at) / Fold change /veh PRB3 (11715151_x_at) / RFU TUBB4B (11761932_at) / Fold change /veh TUBB4B (11761932_at) / RFU CAPN14 (11732068_a_at) / Fold change /veh CAPN14 (11732068_a_at) / RFU TMCC2 (11721928_a_at) / Fold change /veh TMCC2 (11721928_a_at) / RFU IRGQ (11745062_a_at) / Fold change /veh IRGQ (11745062_a_at) / RFU FAM174B (11720279_a_at) / Fold change /veh FAM174B (11720279_a_at) / RFU TMPRSS4 (11748680_a_at) / Fold change /veh TMPRSS4 (11748680_a_at) / RFU FAM212B (11763350_a_at) / Fold change /veh FAM212B (11763350_a_at) / RFU PLEKHG5 (11743358_a_at) / Fold change /veh PLEKHG5 (11743358_a_at) / RFU ZSCAN30 (11745921_a_at) / Fold change /veh ZSCAN30 (11745921_a_at) / RFU CMKLR1 (11741424_a_at) / Fold change /veh CMKLR1 (11741424_a_at) / RFU LOC101060620 /// MAPK8IP1 (11723275_at) / Fold change /veh LOC101060620 /// MAPK8IP1 (11723275_at) / RFU SPTSSB (11747773_x_at) / Fold change /veh SPTSSB (11747773_x_at) / RFU PRSS12 (11739890_at) / Fold change /veh PRSS12 (11739890_at) / RFU BIN1 (11741810_x_at) / Fold change /veh BIN1 (11741810_x_at) / RFU WNT11 (11732464_a_at) / Fold change /veh WNT11 (11732464_a_at) / RFU C10orf10 (11716521_a_at) / Fold change /veh C10orf10 (11716521_a_at) / RFU C5orf56 (11738089_at) / Fold change /veh C5orf56 (11738089_at) / RFU CYB561 (11721691_x_at) / Fold change /veh CYB561 (11721691_x_at) / RFU ANKRD19P (11752326_a_at) / Fold change /veh ANKRD19P (11752326_a_at) / RFU OR2T12 /// OR2T33 /// OR2T8 (11738714_s_at) / Fold change /veh OR2T12 /// OR2T33 /// OR2T8 (11738714_s_at) / RFU VCAN (11748164_a_at) / Fold change /veh VCAN (11748164_a_at) / RFU JSRP1 (11732532_at) / Fold change /veh JSRP1 (11732532_at) / RFU KRTAP10-11 (11738290_x_at) / Fold change /veh KRTAP10-11 (11738290_x_at) / RFU MYO3A (11730013_a_at) / Fold change /veh MYO3A (11730013_a_at) / RFU EBF3 (11725865_a_at) / Fold change /veh EBF3 (11725865_a_at) / RFU CAMK2N1 (11719241_x_at) / Fold change /veh CAMK2N1 (11719241_x_at) / RFU C5orf56 (11738088_a_at) / Fold change /veh C5orf56 (11738088_a_at) / RFU OLFML3 (11715873_a_at) / Fold change /veh OLFML3 (11715873_a_at) / RFU LOC100653217 /// NTM (11731650_a_at) / Fold change /veh LOC100653217 /// NTM (11731650_a_at) / RFU MAPK11 (11762145_a_at) / Fold change /veh MAPK11 (11762145_a_at) / RFU FIZ1 (11724087_x_at) / Fold change /veh FIZ1 (11724087_x_at) / RFU OASL (11726364_x_at) / Fold change /veh OASL (11726364_x_at) / RFU SOX15 (11748057_x_at) / Fold change /veh SOX15 (11748057_x_at) / RFU CD79A (11719716_a_at) / Fold change /veh CD79A (11719716_a_at) / RFU HIST1H1D (11736915_at) / Fold change /veh HIST1H1D (11736915_at) / RFU CASKIN2 (11723855_a_at) / Fold change /veh CASKIN2 (11723855_a_at) / RFU LOC730098 (11760151_x_at) / Fold change /veh LOC730098 (11760151_x_at) / RFU OR4N2 (11742367_at) / Fold change /veh OR4N2 (11742367_at) / RFU PRRT2 (11749266_a_at) / Fold change /veh PRRT2 (11749266_a_at) / RFU SNX32 (11753110_a_at) / Fold change /veh SNX32 (11753110_a_at) / RFU CDHR5 (11726645_a_at) / Fold change /veh CDHR5 (11726645_a_at) / RFU RCAN1 (11760418_a_at) / Fold change /veh RCAN1 (11760418_a_at) / RFU FAM167A (11723789_a_at) / Fold change /veh FAM167A (11723789_a_at) / RFU FAM26E (11764081_at) / Fold change /veh FAM26E (11764081_at) / RFU ISYNA1 (11749810_s_at) / Fold change /veh ISYNA1 (11749810_s_at) / RFU ACY1 (11761880_at) / Fold change /veh ACY1 (11761880_at) / RFU 11764098_at / Fold change /veh 11764098_at / RFU SAMD14 (11745864_x_at) / Fold change /veh SAMD14 (11745864_x_at) / RFU NPB (11741838_a_at) / Fold change /veh NPB (11741838_a_at) / RFU TMPRSS6 (11731388_a_at) / Fold change /veh TMPRSS6 (11731388_a_at) / RFU KRTAP10-2 (11738614_at) / Fold change /veh KRTAP10-2 (11738614_at) / RFU ARHGAP8 /// PRR5-ARHGAP8 (11727945_x_at) / Fold change /veh ARHGAP8 /// PRR5-ARHGAP8 (11727945_x_at) / RFU KRTAP5-7 /// NADSYN1 (11734609_at) / Fold change /veh KRTAP5-7 /// NADSYN1 (11734609_at) / RFU RASL12 (11751679_a_at) / Fold change /veh RASL12 (11751679_a_at) / RFU CDKN2B (11736163_a_at) / Fold change /veh CDKN2B (11736163_a_at) / RFU PRF1 (11729649_at) / Fold change /veh PRF1 (11729649_at) / RFU, ZNF638 /// ZNF638-IT1 / Fold change vs veh, ZNF638 /// ZNF638-IT1 / RFU, PANK3 / Fold change vs veh, PANK3 / RFU, SH3YL1 / Fold change vs veh, SH3YL1 / RFU, ZEB2 / Fold change vs veh, ZEB2 / RFU, NRIP1 / Fold change vs veh, NRIP1 / RFU, PTTG1IP / Fold change vs veh, PTTG1IP / RFU, CAPN2 / Fold change vs veh, CAPN2 / RFU, MED14 / Fold change vs veh, MED14 / RFU, SNORA58 / Fold change vs veh, SNORA58 / RFU, C1orf63 / Fold change vs veh, C1orf63 / RFU, LRRFIP1 / Fold change vs veh, LRRFIP1 / RFU, NDUFAF7 / Fold change vs veh, NDUFAF7 / RFU, SLC12A2 / Fold change vs veh, SLC12A2 / RFU, IBTK / Fold change vs veh, IBTK / RFU, ESF1 / Fold change vs veh, ESF1 / Fold change vs veh, TMEM50B / RFU, TAOK1 / Fold change vs veh, TAOK1 / RFU, ACBD3 / Fold change vs veh, ACBD3 / RFU, TMA16 / Fold change vs veh, TMA16 / RFU, RWDD3 / Fold change vs veh, RWDD3 / RFU, BCAT1 / Fold change vs veh, BCAT1 / RFU, EDEM3 / Fold change vs veh, EDEM3 / RFU, TMEM33 / Fold change vs veh, TMEM33 / RFU, WDR75 / Fold change vs veh, WDR75 / RFU, AHCTF1 / Fold change vs veh, AHCTF1 / RFU, TFRC / Fold change vs veh, TFRC / RFU, ZDHHC17 / Fold change vs veh, ZDHHC17 / RFU, NOM1 / Fold change vs veh, NOM1 / RFU, ARL8B / Fold change vs veh, ARL8B / RFU, ZBTB11 / Fold change vs veh, ZBTB11 / RFU, TAMM41 / Fold change vs veh, TAMM41 / RFU, KIAA1704 /// LOC100996395 / Fold change vs veh, KIAA1704 /// LOC100996395 / RFU, ING1 / Fold change vs veh, ING1 / RFU, TRMT61B / Fold change vs veh, TRMT61B / RFU, FUBP3 / Fold change vs veh, FUBP3 / RFU, TP53 / Fold change vs veh, TP53 / RFU, TNKS2 / Fold change vs veh, TNKS2 / RFU, ZFP14 / Fold change vs veh, ZFP14 / RFU, ACTR2 / Fold change vs veh, ACTR2 / RFU, PPP3R1 / Fold change vs veh, PPP3R1 / RFU, PIK3R1 / Fold change vs veh, PIK3R1 / RFU, HNRNPA1 / Fold change vs veh, HNRNPA1 / RFU, RNF170 / Fold change vs veh, RNF170 / RFU, ZNF28 / Fold change vs veh, ZNF28 / RFU, RNGTT / Fold change vs veh, RNGTT / RFU, OGT / Fold change vs veh, OGT / RFU, BRD1 / Fold change vs veh, BRD1 / RFU, MARS / Fold change vs veh, MARS / RFU, ZNF655 / Fold change vs veh, ZNF655 / RFU, FAHD1 / Fold change vs veh, FAHD1 / RFU, BDP1 / Fold change vs veh, BDP1 / RFU, LRRCC1 / Fold change vs veh, LRRCC1 / RFU, ARID1A / Fold change vs veh, ARID1A / RFU, ZNF146 / Fold change vs veh, ZNF146 / RFU, ZNF330 / Fold change vs veh, ZNF330 / RFU, GPN3 / Fold change vs veh, GPN3 / RFU, C9orf123 / Fold change vs veh, C9orf123 / RFU, N4BP2L2 / Fold change vs veh, N4BP2L2 / RFU, ARFIP1 / Fold change vs veh, ARFIP1 / RFU, FAM179B / Fold change vs veh, FAM179B / RFU, BCL10 / Fold change vs veh, BCL10 / RFU, UHRF1BP1L / Fold change vs veh, UHRF1BP1L / RFU, BET1 / Fold change vs veh, BET1 / RFU, CNOT2 / Fold change vs veh, CNOT2 / RFU, ZNF268 / Fold change vs veh, ZNF268 / Fold change vs veh, ZNF507 / RFU, DGCR2 / Fold change vs veh, DGCR2 / RFU, WDSUB1 / Fold change vs veh, WDSUB1 / Fold change vs veh, HSP90B1 /// MIR3652 / RFU, ADSS / Fold change vs veh, ADSS / RFU, GK / Fold change vs veh, GK / RFU, ZNF148 / Fold change vs veh, ZNF148 / RFU, TAF9 / Fold change vs veh, TAF9 / RFU, SLC1A5 / Fold change vs veh, SLC1A5 / RFU, SLMO2 / Fold change vs veh, SLMO2 / RFU, ABCC4 / Fold change vs veh, ABCC4 / RFU, LOC101060439 /// RAP1B / Fold change vs veh, LOC101060439 /// RAP1B / RFU, RFX7 / Fold change vs veh, RFX7 / RFU, GTPBP10 / Fold change vs veh, GTPBP10 / RFU, CNEP1R1 / Fold change vs veh, CNEP1R1 / RFU, BIVM-ERCC5 /// ERCC5 / Fold change vs veh, BIVM-ERCC5 /// ERCC5 / RFU, ILF3 / Fold change vs veh, ILF3 / RFU 11762660_at / Fold change /veh 11762660_at / RFU VCAN (11757783_s_at) / Fold change /veh VCAN (11757783_s_at) / RFU DDX43 (11728927_at) / Fold change /veh DDX43 (11728927_at) / RFU KRT8 (11758188_x_at) / Fold change /veh KRT8 (11758188_x_at) / RFU NKD1 (11759106_at) / Fold change /veh NKD1 (11759106_at) / RFU SRD5A1 (11742802_a_at) / Fold change /veh SRD5A1 (11742802_a_at) / RFU TPSAB1 /// TPSB2 (11721975_s_at) / Fold change /veh TPSAB1 /// TPSB2 (11721975_s_at) / RFU GSTM3 (11746129_a_at) / Fold change /veh GSTM3 (11746129_a_at) / RFU IL23R (11737362_x_at) / Fold change /veh IL23R (11737362_x_at) / RFU TMEM51 (11727254_a_at) / Fold change /veh TMEM51 (11727254_a_at) / RFU PIWIL2 (11732686_x_at) / Fold change /veh PIWIL2 (11732686_x_at) / RFU ORM1 (11744905_x_at) / Fold change /veh ORM1 (11744905_x_at) / RFU CCDC152 (11743942_at) / Fold change /veh CCDC152 (11743942_at) / RFU ECM1 (11717891_a_at) / Fold change /veh ECM1 (11717891_a_at) / RFU IL23R (11748794_a_at) / Fold change /veh IL23R (11748794_a_at) / RFU TNFAIP8L3 (11732012_x_at) / Fold change /veh TNFAIP8L3 (11732012_x_at) / RFU MBOAT4 (11741988_at) / Fold change /veh MBOAT4 (11741988_at) / RFU 11764193_at / Fold change /veh 11764193_at / RFU TMEM53 (11763286_at) / Fold change /veh TMEM53 (11763286_at) / RFU MAGEB2 (11727129_at) / Fold change /veh MAGEB2 (11727129_at) / RFU TMEM200A (11744735_a_at) / Fold change /veh TMEM200A (11744735_a_at) / RFU CCDC152 (11751479_a_at) / Fold change /veh CCDC152 (11751479_a_at) / RFU FAM211A (11726209_a_at) / Fold change /veh FAM211A (11726209_a_at) / RFU RGS16 (11746705_a_at) / Fold change /veh RGS16 (11746705_a_at) / RFU VCAN (11755009_s_at) / Fold change /veh VCAN (11755009_s_at) / RFU RHOB (11743442_s_at) / Fold change /veh RHOB (11743442_s_at) / RFU RGS16 (11720943_a_at) / Fold change /veh RGS16 (11720943_a_at) / RFU RGS16 (11720944_at) / Fold change /veh RGS16 (11720944_at) / RFU, VPS4B / Fold change vs veh, VPS4B / RFU, CREB1 / Fold change vs veh, CREB1 / RFU, DNAJC13 / Fold change vs veh, DNAJC13 / RFU, GNAQ / Fold change vs veh, GNAQ / RFU, CDK5R1 / Fold change vs veh, CDK5R1 / RFU, ZRANB3 / Fold change vs veh, ZRANB3 / RFU, CUL4A / Fold change vs veh, CUL4A / RFU, CCNY / Fold change vs veh, CCNY / RFU, UFL1 / Fold change vs veh, UFL1 / RFU, COG3 / Fold change vs veh, COG3 / RFU, DIAPH2 / Fold change vs veh, DIAPH2 / RFU, SKA2 / Fold change vs veh, SKA2 / RFU, AFF3 / Fold change vs veh, AFF3 / RFU, LMF1 / Fold change vs veh, LMF1 / RFU, IPO11 / Fold change vs veh, IPO11 / RFU, DFFB / Fold change vs veh, DFFB / RFU, FOXP1 / Fold change vs veh, FOXP1 / RFU, CARD8 / Fold change vs veh, CARD8 / RFU, STRN3 / Fold change vs veh, STRN3 / RFU, ADK / Fold change vs veh, ADK / RFU, RASSF2 / Fold change vs veh, RASSF2 / RFU, WIPF1 / Fold change vs veh, WIPF1 / RFU, LARP1B / Fold change vs veh, LARP1B / RFU, RASA1 / Fold change vs veh, RASA1 / RFU, RB1 / Fold change vs veh, RB1 / RFU, PPFIA1 / Fold change vs veh, PPFIA1 / RFU, MAT2A / Fold change vs veh, MAT2A / RFU, CCT5 / Fold change vs veh, CCT5 / RFU, WDR92 / Fold change vs veh, WDR92 / RFU, CUX1 / Fold change vs veh, CUX1 / RFU, TTC7A / Fold change vs veh, TTC7A / RFU, TMEM135 / Fold change vs veh, TMEM135 / RFU, DEPTOR / Fold change vs veh, DEPTOR / RFU, CPM / Fold change vs veh, CPM / RFU, DNAJB6 / Fold change vs veh, DNAJB6 / RFU, CACNA2D3 / Fold change vs veh, CACNA2D3 / RFU, DTX4 / Fold change vs veh, DTX4 / RFU, TFCP2 / Fold change vs veh, TFCP2 / RFU, GMCL1 /// GMCL1P1 / Fold change vs veh, GMCL1 /// GMCL1P1 / RFU, AEBP2 / Fold change vs veh, AEBP2 / RFU, SNHG1 /// SNORD22 /// SNORD25 /// SNORD26 /// SNORD27 /// SNORD28 /// SNORD29 /// SNORD31 / Fold change vs veh, SNHG1 /// SNORD22 /// SNORD25 /// SNORD26 /// SNORD27 /// SNORD28 /// SNORD29 /// SNORD31 / Fold change (Aza/veh), C12orf56 (ProbeSet 11735607_a_at) / Fold change (ACY-1035/veh), C12orf56 (ProbeSet 11735607_a_at) / Fold change (Aza/veh), FGFR1OP (ProbeSet 11751329_s_at) / Fold change (ACY-1035/veh), FGFR1OP (ProbeSet 11751329_s_at) / Fold change (Aza/veh), VPS36 (ProbeSet 11739960_a_at) / Fold change (ACY-1035/veh), VPS36 (ProbeSet 11739960_a_at) / RFU SYPL1 (11715823_x_at) / Fold change /veh SYPL1 (11715823_x_at) / RFU IGFBP7 (11715501_s_at) / Fold change /veh IGFBP7 (11715501_s_at) / RFU REEP3 (11722064_at) / Fold change /veh REEP3 (11722064_at) / RFU IGLL1 (11728026_x_at) / Fold change /veh IGLL1 (11728026_x_at): dose or concentration left out as unconfirmed",
  "conditions": "MV-4-11 cells, 48 hours",
  "data": [
    {"smiles": "Nc1ncn([C@@H]2O[C@H](CO)[C@@H](O)[C@H]2O)c(=O)n1", "note": "[azacitidine]", "values": [
      {"measurement": "RFU ACY1 (11761880_at)", "value": 18.62, "unit": "RFU"}
    ]}
  ]
}
